# Key:
# [1] = system: HCMV infection of ARPE19 epithelial cells; experiment: Peptide blocking assay, infection of ARPE19 cells (percent GFP or IE positive cells); type: cell-based, Human cytomegalovirus (HCMV); details: peptide 1 100 μg/ml
# Procedure: (A) Different amounts of peptide 1 were preincubated with TB40E-GFP virus and the mixture applied to ARPE19. Viral DNA levels were quantified by qPCR. (B) The results in (A) are presented as the relative amount of viral DNA relative to the DMSO control. (C) TB40E-GFP virus was preincubated with peptide 1 (100 μg/ml), or DMSO, followed by infection of ARPE19 cells (MOI=2.0). Cells were imaged for GFP expression at 2 dpi (D2) and 7 dpi (D7). (D) TB40E-GFP or BADrUL131-GFP virus, both expressing PC, were preincubated with peptide 1 (100 μg/ml), or DMSO prior to infection of ARPE19 cells (MOI=2.0). Cells were fixed and imaged for GFP at 2 dpi. All data represent the mean of n=3 experiments+/−SD. (E) Culture media supernatants from (C) were harvested on the indicated dpi and assayed for infectious virus by plaque assay. Values indicate the mean percent infected cells of 3 independent experiments±SD. ****p<0.0001.
# FIG. 9. […] TB40E-GFP encoding the viral PC or AD169 lacking PC were preincubated with peptide 1 (100 μg/ml) and then infected on ARPE19 epithelial cells or HEL fibroblasts (MOI=2.0). Cells were fixed, permeabilized, stained for DNA, immunostained for anti-immediate early protein (IE) and imaged. […] Values indicate the mean percentage of infected cells of n=3 experiments±SD. **p<0.01; ***p<0.001.
# FIG. 11. Each of the short peptides (aa sequences listed in Table 4; 150 uM), Peptide 1 (32.6 μM), or DMSO alone was preincubated with TB40E virus, followed by infection of ARPE19 cell lines (MOI=2.0). Cells were fixed and imaged for GFP and DNA at 2 dpi. Quantitation data indicating the percent GFP positive cells.
# Live cell images: Phase and GFP signal images were captured on a Zeiss microscope (Zeiss AxioObserver Z1) at 10× magnification. Fixed cell images: cells were washed with PBS (Life Technologies) and fixed with 4% formalin in PBS (Sigma). DNA was stained with Hoechst 33342 dye (Life Technologies). The fixed cells were imaged using an Image Xpress Micro (IXM, Molecular Devices) at 4× magnification. Images were analyzed with MetaXpress imaging software (Molecular Devices) to determine the total cells per well and the percentage of infected cells (GFP positive) in each well. For IE immunostaining: fixed cells were permeabilized with 0.2% Triton X-100 (Sigma) in PBS. Blocking was performed with 1% BSA (Calbiochem, 2930) in PBS with 0.3M glycine (Sigma). Cells were then incubated in antibody targeting the major IE proteins (IE, EMD Millipore, MAB8131) diluted in 1% BSA in PBS. Cells were then incubated in secondary antibody (Texas Red-conjugated goat anti-mouse IgG2A, Southern Biotech, 1080-07) in PBS containing 1% BSA.
# At 2 dpi with HCMV TB40E-GFP virus at the indicated MOI, ARPE19 cells were fixed with 4% formaldehyde and nuclei stained with Hoechst 33342. ARPE19 cells were imaged on an automated IXM scanning microscope. Numbers of infected cells were determined by calculating the percent GFP positive cells using MetaXpress software.
# The noted synthetic peptides (100 ug/ml each or as described) were mixed with TB40E-GFP virus (1.2×10^6 PFU) and incubated at 37° C. for 2 h by rocking. The resulting samples were then subjected to the virus binding or infection assay.
# [2] = system: Akt phosphorylation in ARPE19 cells; experiment: PI3/Akt signaling induced by virus binding (immunoblot phospho Akt ser473); type: cell-based; details: Peptide 1 100 ug/ml preincubated with virus at 37° C. for 2 h, ARPE19, 30 minutes post infection
# Procedure: FIGS. 8A-C. […] (A) Cells were serum starved at 37° C. for overnight and cells were pretreated with DMSO (control), LY294002 (50 uM) in serum-free medium prior to infection for two hours. Plated cells were cooled on ice for 30 mins. Cells were infected by purified TB40E-GFP virus (no serum) at MOI of 2.0 PFU per cell for 2 hours on ice. Cell plates were then shifted to 37° C. incubator (time 0). Cells were harvested at 0, 5, 10 mins post infection. Protein extracts were subjected to immunoblotting with anti-phospho Akt (ser473), Akt or anti-β-actin (loading control). (B) ARPE19 epithelial sgCon and sgOR14I1 knock out cells were serum starved at 37° C. for overnight. Plated cells were cooled on ice for 30 mins. Cells were infected by purified TB40E-GFP virus (no serum) at MOI of 2.0 PFU per cell for 2 hours on ice. Cell plates were then shifted to 37° C. incubator (time 0). Cell were harvested at 0, 5 mins post infection. (C) Peptide 1 (100 ug/ml) was preincubated with TB40E-GFP virus at 37° C. for 2 h and the mixture applied to ARPE19 cells. The phosphorylation of Akt and total Akt were detected 30 minutes post infection of TB40E-GFP.
# Cells were serum starved at 37° C. for overnight and cells were pretreated with DMSO (DMSO-carrier control) or LY294002 (50 uM) in serum-free medium prior to infection for two hours. Cell plates were cooled on ice for 30 mins. […]
sequence,measurement,setting,value
"MDNLTKVTEFLLMEFSGIWELQVLHA (N-terminal fragment of OR14I1) [Peptide 1, synthetic peptide representing the N-terminus of OR14I1, position 1-26]",anti-viral action versus presence of viral PC,"[1]; TB40E-GFP encoding PC or AD169 lacking PC, MOI=2.0",dependent on the presence of the PC
same,anti-viral action versus viral strain,"[1]; TB40E-GFP or BADrUL131-GFP, MOI=2.0, 2 dpi",independent of viral strain
same,HCMV infection of ARPE19 epithelial cells (percent IE positive cells),"[1]; TB40E-GFP, MOI=2.0",blocks HCMV infection of ARPE19 epithelial cells
same,Akt phosphorylation induced by HCMV infection,[2],abolished

# Source: patent publication US12268901B2, “Targeting cell tropism receptors to inhibit cytomegalovirus infection” (priority 2017, dated 2025)
